The record followed here is patent US8987250B2 (Gilead Sciences, Inc., priority 2012, dated 2015).

SMILES strings stand for the structures. pEC50: −log10 of the molar value.

In the first test the test system is HIV-IIIb. The test can be described thus: Test A: Antiviral Assay in MT4 Cells. Type of test: cell-based. To be noted: Human immunodeficiency virus 1, IIIB, MT4, 120 h. The method, boiled down:
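MT-4 cells pre-infected with HIV-IIIb (0.004 m.o.i.) at 37 °C, then exposed to 3-fold serial compound dilutions (10 concentrations, quadruplicate) in RPMI 1640/10% FBS. After 5 days at 37 °C, viability read by CellTiter-Glo luminescence.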
`Cc1cc2nc(-c3ccnc(N4CCn5c(nnc5C(F)(F)F)C4)c3)sc2c(-c2ccc(Cl)cc2)c1[C@H](OC(C)(C)C)C(=O)O` [Compound 222, (S)-2-tert-butoxy-2-(7-(4-chlorophenyl)-5-methyl-2-(2-(3-(trifluoromethyl)-5,6-dihydro-[1,2,4]triazolo[4,3-a]pyrazin-7(8H)-yl)pyridin-4-yl)benzo[d]thiazol-6-yl)acetic acid] gave a pEC50 of 7.31.

The test is the same for the next values; noted with them: Human immunodeficiency virus 1, IIIB, MT4, 120 h, Table 2; MT-4 cells infected with HIV-IIIb, 5 days of incubation, CellTiter-Glo; read-out: EC50.
Regarding `Cc1cc2nc(-c3ccnc(-c4cc(C)c5nn(C)cc5c4)c3)sc2c(-c2ccc(Cl)cc2)c1[C@H](OC(C)(C)C)C(=O)O` [Compound 216, (S)-2-tert-butoxy-2-(7-(4-chlorophenyl)-2-(2-(2,7-dimethyl-2H-indazol-5-yl)pyridin-4-yl)-5-methylbenzo[d]thiazol-6-yl)acetic acid], the pEC50 is 7.82.
`Cc1cc2nc(-c3ccc4c(c3)nc(C)n4C)sc2c(-c2ccc(Cl)cc2)c1[C@H](OC(C)(C)C)C(=O)O` [Compound 217, (S)-2-tert-butoxy-2-(7-(4-chlorophenyl)-2-(1,2-dimethyl-1H-benzo[d]imidazol-5-yl)-5-methylbenzo[d]thiazol-6-yl)acetic acid]: the pEC50 was 8.15.
On to `Cc1cc2nc(-c3ccnc(N4CCOCC4)c3)sc2c(-c2ccc(Cl)cc2)c1[C@H](OC(C)(C)C)C(=O)O` [Compound 218, (S)-2-tert-butoxy-2-(7-(4-chlorophenyl)-5-methyl-2-(2-morpholinopyridin-4-yl)benzo[d]thiazol-6-yl)acetic acid], for which the pEC50 is 6.94.
In the case of `Cc1cc2nc(-c3ccnc(N4CCN(C)CC4)c3)sc2c(-c2ccc(Cl)cc2)c1[C@H](OC(C)(C)C)C(=O)O` [Compound 219, (S)-2-tert-butoxy-2-(7-(4-chlorophenyl)-5-methyl-2-(2-(4-methylpiperazin-1-yl)pyridin-4-yl)benzo[d]thiazol-6-yl)acetic acid], the pEC50 was 7.41.
For the compound `CCN1CCN(c2cc(-c3nc4cc(C)c([C@H](OC(C)(C)C)C(=O)O)c(-c5ccc(Cl)cc5)c4s3)ccn2)CC1` [Compound 220, (S)-2-tert-butoxy-2-(7-(4-chlorophenyl)-2-(2-(4-ethylpiperazin-1-yl)pyridin-4-yl)-5-methylbenzo[d]thiazol-6-yl)acetic acid], the pEC50 was 7.37.
On the same count and under the same terms, the figure for `Cc1cc2nc(-c3ccnc(N4CCN(C(C)C)CC4)c3)sc2c(-c2ccc(Cl)cc2)c1[C@H](OC(C)(C)C)C(=O)O` [Compound 221, (S)-2-tert-butoxy-2-(7-(4-chlorophenyl)-2-(2-(4-isopropylpiperazin-1-yl)pyridin-4-yl)-5-methylbenzo[d]thiazol-6-yl)acetic acid] is 7.62; for `Cc1cc2nc(-c3ccnc(N4CCn5cnnc5C4)c3)sc2c(-c2ccc(Cl)cc2)c1[C@H](OC(C)(C)C)C(=O)O` [Compound 223, (S)-2-tert-butoxy-2-(7-(4-chlorophenyl)-2-(2-(5,6-dihydro-[1,2,4]triazolo[4,3-a]pyrazin-7(8H)-yl)pyridin-4-yl)-5-methylbenzo[d]thiazol-6-yl)acetic acid] it is 6.51.
As to `Cc1cc2nc(-c3ccnc(N4CCc5c(c(C)nn5C)C4)c3)sc2c(-c2ccc(Cl)cc2)c1[C@H](OC(C)(C)C)C(=O)O` [Compound 224, (S)-2-tert-butoxy-2-(7-(4-chlorophenyl)-2-(2-(1,3-dimethyl-6,7-dihydro-1H-pyrazolo[4,3-c]pyridin-5(4H)-yl)pyridin-4-yl)-5-methylbenzo[d]thiazol-6-yl)acetic acid], the pEC50 was 7.92.
Same read-out and setting: the figure for `Cc1cc2nc(-c3ccnc(-c4ccc5c(F)nn(C)c5c4)c3)sc2c(-c2ccc(Cl)cc2)c1[C@H](OC(C)(C)C)C(=O)O` [Compound 225, (S)-2-tert-butoxy-2-(7-(4-chlorophenyl)-2-(2-(3-fluoro-1-methyl-1H-indazol-6-yl)pyridin-4-yl)-5-methylbenzo[d]thiazol-6-yl)acetic acid] is 7.02.
Take `CCc1cnn2cc(-c3cc(-c4nc5cc(C)c([C@H](OC(C)(C)C)C(=O)O)c(-c6ccc(Cl)cc6)c5s4)ccn3)cnc12` [Compound 226, (S)-2-tert-butoxy-2-(7-(4-chlorophenyl)-2-(2-(3-ethylpyrazolo[1,5-a]pyrimidin-6-yl)pyridin-4-yl)-5-methylbenzo[d]thiazol-6-yl)acetic acid]: the pEC50 was 7.44.
`CCc1cnn2cc(-c3nc4cc(C)c([C@H](OC(C)(C)C)C(=O)O)c(-c5ccc(Cl)cc5)c4s3)cnc12` [Compound 227, (S)-2-tert-butoxy-2-(7-(4-chlorophenyl)-2-(3-ethylpyrazolo[1,5-a]pyrimidin-6-yl)-5-methylbenzo[d]thiazol-6-yl)acetic acid]: the pEC50 is 7.07.
With `Cc1cc2nc(-c3cccc(-n4cc(C)c(=O)[nH]c4=O)c3)sc2c(-c2ccc(Cl)cc2)c1[C@H](OC(C)(C)C)C(=O)O` [Compound 228, (S)-2-tert-butoxy-2-(7-(4-chlorophenyl)-5-methyl-2-(3-(5-methyl-2,4-dioxo-3,4-dihydropyrimidin-1(2H)-yl)phenyl)benzo[d]thiazol-6-yl)acetic acid], the pEC50 is 6.04.
On the same count and under the same terms, the figure for `Cc1cc2nc(-c3cccc(-n4ccc(=O)[nH]c4=O)c3)sc2c(-c2ccc(Cl)cc2)c1[C@H](OC(C)(C)C)C(=O)O` [Compound 229, (S)-2-tert-butoxy-2-(7-(4-chlorophenyl)-2-(3-(2,4-dioxo-3,4-dihydropyrimidin-1(2H)-yl)phenyl)-5-methylbenzo[d]thiazol-6-yl)acetic acid] is 5.76; for `Cc1cc2nc(-c3ccnc(-c4ccc(=O)[nH]c4)c3)sc2c(-c2ccc(Cl)cc2)c1[C@H](OC(C)(C)C)C(=O)O` [Compound 230, (S)-2-tert-butoxy-2-(7-(4-chlorophenyl)-5-methyl-2-(2-(6-oxo-1,6-dihydropyridin-3-yl)pyridin-4-yl)benzo[d]thiazol-6-yl)acetic acid] it is 6.88.
In the case of `Cc1cc2nc(-c3ccnc(-c4ccc[nH]c4=O)c3)sc2c(-c2ccc(Cl)cc2)c1[C@H](OC(C)(C)C)C(=O)O` [Compound 232, (S)-2-tert-butoxy-2-(7-(4-chlorophenyl)-5-methyl-2-(2-(2-oxo-1,2-dihydropyridin-3-yl)pyridin-4-yl)benzo[d]thiazol-6-yl)acetic acid], the pEC50 is 7.07.
The same measure, in the same setting: the figure for `COc1ncccc1-c1cc(-c2nc3cc(C)c([C@H](OC(C)(C)C)C(=O)O)c(-c4ccc(Cl)cc4)c3s2)ccn1` [Compound 233, (S)-2-tert-butoxy-2-(7-(4-chlorophenyl)-2-(2′-methoxy-2,3′-bipyridin-4-yl)-5-methylbenzo[d]thiazol-6-yl)acetic acid] is 7.48.
Consider `Cc1cc2nc(-c3ccnc(-c4cc5c(C)nn(C)c5cn4)c3)sc2c(-c2ccc(Cl)cc2)c1[C@H](OC(C)(C)C)C(=O)O` [Compound 234, (S)-2-tert-butoxy-2-(7-(4-chlorophenyl)-2-(2-(1,3-dimethyl-1H-pyrazolo[3,4-c]pyridin-5-yl)pyridin-4-yl)-5-methylbenzo[d]thiazol-6-yl)acetic acid], for which the pEC50 was 7.89.
For `Cc1cc2nc(-c3cc4c(C)nn(C)c4cn3)sc2c(-c2ccc(Cl)cc2)c1[C@H](OC(C)(C)C)C(=O)O` [Compound 235, (S)-2-tert-butoxy-2-(7-(4-chlorophenyl)-2-(1,3-dimethyl-1H-pyrazolo[3,4-c]pyridin-5-yl)-5-methylbenzo[d]thiazol-6-yl)acetic acid], the negative logarithm of the EC50 (pEC50) was 7.85.
`Cc1cc2nc(-c3ccnc(-c4cccc5c4CC(=O)N5C)c3)sc2c(-c2ccc(Cl)cc2)c1[C@H](OC(C)(C)C)C(=O)O` [Compound 236, (S)-2-tert-butoxy-2-(7-(4-chlorophenyl)-5-methyl-2-(2-(1-methyl-2-oxoindolin-4-yl)pyridin-4-yl)benzo[d]thiazol-6-yl)acetic acid]: the pEC50 was 7.51.
The same measure, in the same setting: then `Cc1cc2nc(-c3ccnc(-c4ccc5c(c4)CC(=O)N5C)c3)sc2c(-c2ccc(Cl)cc2)c1[C@H](OC(C)(C)C)C(=O)O` [Compound 237, (S)-2-tert-butoxy-2-(7-(4-chlorophenyl)-5-methyl-2-(2-(1-methyl-2-oxoindolin-5-yl)pyridin-4-yl)benzo[d]thiazol-6-yl)acetic acid], with 8.00.
As for `Cc1cc2nc(-c3ccc4c(c3)CC(=O)N4C)sc2c(-c2ccc(Cl)cc2)c1[C@H](OC(C)(C)C)C(=O)O` [Compound 239, (S)-2-tert-butoxy-2-(7-(4-chlorophenyl)-5-methyl-2-(1-methyl-2-oxoindolin-5-yl)benzo[d]thiazol-6-yl)acetic acid], the pEC50 is 7.59.
On to `Cc1cc2nc(-c3ccc4c(c3)CC(=O)N4)sc2c(-c2ccc(Cl)cc2)c1[C@H](OC(C)(C)C)C(=O)O` [Compound 240, (S)-2-tert-butoxy-2-(7-(4-chlorophenyl)-5-methyl-2-(2-oxoindolin-5-yl)benzo[d]thiazol-6-yl)acetic acid], for which the pEC50 was 7.12.
In the case of `Cc1cc2nc(-c3ccnc(N4Cc5ccncc5C4=O)c3)sc2c(-c2ccc(Cl)cc2)c1[C@H](OC(C)(C)C)C(=O)O` [Compound 241, (S)-2-tert-butoxy-2-(7-(4-chlorophenyl)-5-methyl-2-(2-(3-oxo-1H-pyrrolo[3,4-c]pyridin-2(3H)-yl)pyridin-4-yl)benzo[d]thiazol-6-yl)acetic acid], the pEC50 is 8.52.
On to `Cc1ccc2c(c1)CCN2c1nc2cc(C)c([C@H](OC(C)(C)C)C(=O)O)c(-c3ccc(Cl)cc3)c2s1` [Compound 243, (S)-2-tert-butoxy-2-(7-(4-chlorophenyl)-5-methyl-2-(5-methylindolin-1-yl)benzo[d]thiazol-6-yl)acetic acid], for which the pEC50 is 6.37.
For the compound `Cc1cc2nc(-c3ccnc(N4CCc5cnccc54)c3)sc2c(-c2ccc(Cl)cc2)c1[C@H](OC(C)(C)C)C(=O)O` [Compound 245, (S)-2-tert-butoxy-2-(7-(4-chlorophenyl)-2-(2-(2,3-dihydro-1H-pyrrolo[3,2-c]pyridin-1-yl)pyridin-4-yl)-5-methylbenzo[d]thiazol-6-yl)acetic acid], the pEC50 is 8.05.
